Data reported in US20060229347A1, “Treatment of eczemas” (Astion Development A/S, priority 2005, published 2006).
Where a name gives a salt, the structure may show the parent alone. One block for each compound: values may come before it.

Legend:
[1] = tested on: oxazolone induced ear inflammation; assay: Oxazolone induced Mouse Ear Oedema Assay; format: in vivo, mice; conditions: for % inhibition of ear swelling: 24 hours; for inhibition of the formation of ear oedema: Example 7, 500 μg/ear dissolved in 96% ethanol
Description: Screening for Anti-inflammatory Effect in the Oxazolone induced Mouse Ear Oedema Assay. […] This screening method is commonly employed for screening and evaluation of anti-inflammatory drugs, in particular with respect to the inflammation seen in contact dermatitis. Betamethasone-17 valerate was used as the positive control. […] Betamethason was administered topically in quantities of 20 μg/ear. Betamethason was applied in the commercial form Celeston valerate® 0.1%. All groups were immunised with 20 μl oxazolone, 1.6% in ethanol 96% (w/v) on the left and the right ear. The ear thickness of all mice on both the left and right side was measured with an electronic measuring gauge. All groups were challenged with 20 μl oxazolone (1.6% in ethanol 96% (w/v)) on the left ear and the right ear. Vehicle (acetone) or test article solutions were administered 20 minutes before and 20 minutes after oxazolone challenge. 24 hours after oxazolone challenge the ear thickness of all mice was measured with an electronic measuring gauge. Mean thickness of the ears and standard deviations were calculated. Ear swelling was calculated as the difference between the ear thickness day 7 and day 8. […] Differences in ear swelling between the vehicle treated group and the other groups were tested for significance employing a non-parametric statistical method of analysis, the Mann-Whitney U test. The required level of significance was p<0.05. […] Both test articles were applied in a dose of 500 μg/ear and dissolved in 96% ethanol. Betamethason, as the positive control was administered topically in quantities of 20 μg/ear.

[2] = molecular target: T1, Protein Tyrosine Kinase, ZA70 (ZAP-70) (Homo sapiens, UniProt P43403); assay: Protein Tyrosine Kinase ZA70 (ZAP-70) enzyme inhibition assay (MDS Pharma Service No. 155987); format: biochemical; conditions: in comparison to Oxaprozin
T1 construct: purchased MDS Pharma Service (contract assay) 155987
T1 sequence (P43403 1-619): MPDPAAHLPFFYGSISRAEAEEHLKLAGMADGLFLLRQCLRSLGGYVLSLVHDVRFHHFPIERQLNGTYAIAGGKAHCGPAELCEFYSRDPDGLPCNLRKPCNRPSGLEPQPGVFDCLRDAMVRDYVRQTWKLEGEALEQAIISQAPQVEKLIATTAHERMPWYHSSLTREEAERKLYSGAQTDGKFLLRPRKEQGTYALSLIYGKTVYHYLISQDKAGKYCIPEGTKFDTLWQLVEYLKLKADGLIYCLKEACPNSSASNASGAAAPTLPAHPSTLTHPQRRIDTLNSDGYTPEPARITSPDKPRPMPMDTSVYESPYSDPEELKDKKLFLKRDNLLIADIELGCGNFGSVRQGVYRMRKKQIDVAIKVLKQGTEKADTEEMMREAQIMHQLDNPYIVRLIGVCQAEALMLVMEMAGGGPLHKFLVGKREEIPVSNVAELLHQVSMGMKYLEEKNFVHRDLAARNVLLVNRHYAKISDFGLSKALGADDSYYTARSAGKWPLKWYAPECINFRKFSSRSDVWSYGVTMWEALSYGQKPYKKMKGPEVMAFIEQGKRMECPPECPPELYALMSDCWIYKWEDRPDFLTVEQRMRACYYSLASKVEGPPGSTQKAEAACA
Text: The term “an inhibitor of Protein tyrosine kinase ZAP-70” refers to any agent that inhibits the catalytic activity of the Protein tyrosine kinase ZAP-70 in vitro as may be determined using a method described in Huckle W R, Dy R C, Earp H S. Calcium-dependent increase in tyrosine kinase activity stimulated by angiotensin II. Proc Natl Acad Sci USA 1992 Sep. 15; 89(18):8837-41 and in Isakov N, Wange R L, Watts J D, Aebersold R, Samelson L E. Purification and characterization of human ZAP-70 protein-tyrosine kinase from a baculovirus expression system. J Biol Chem 1996 Jun. 28; 271(26):15753-61. The inhibitory activity of Protein Tyrosine Kinase ZAP may be determined at MDS Pharma Service using test method number 155987.
(§1) The enzyme assays were conducted by MSD Pharma Services.

[3] = molecular target: T2, Protein Tyrosine Kinase, SYK (Homo sapiens, UniProt P43405); assay: Protein Tyrosine Kinase SYK enzyme inhibition assay (MDS Pharma Service No. 155761); format: biochemical; conditions: in comparison to Oxaprozin
T2 construct: purchased MDS Pharma Service (contract assay) 155761
Text: The term “an inhibitor of Protein tyrosine kinase Syk” refers to any agent that inhibits the catalytic activity of Protein tyrosine kinase Syk in vitro. Such in vitro assays are described in Shichijo M, Yamamoto N, Tsujishita H, Kimata M, Nagai H, Kokubo T. Inhibition of syk activity and degranulation of human mast cells by flavonoids. Biol Pharm Bull 2003 December; 26(12):1685-90 and in Zhang J, Berenstein E, Siraganian R P. Phosphorylation of Tyr342 in the linker region of Syk is critical for Fc epsilon RI signalling in mast cells. Mol Cell Biol 2002 December; 22(23):8144-54. The inhibitory activity of Protein Tyrosine Kinase SYK may be determined at MDS Pharma Service using test method number 155761.
as §1

[4] = tested on: Phosphodiesterase PDE IV; assay: Phosphodiesterase PDE IV enzyme inhibition assay (MDS Pharma Service No. 154000); format: biochemical; conditions: in comparison to Oxaprozin
Description: Trends Pharmacol Sci 1991 January; 12(1):19-27 and in Cortijo J, Bou J, Beleta J, Cardelus I, Llenas J, Morcillo E et al. Investigation into the role of phosphodiesterase IV in bronchorelaxation, including studies with human bronchus. Br J Pharmacol 1993 February; 108(2):562-8. The inhibitory activity of Phosphodiesterase PDE IV may be determined at MDS Pharma Service using test method number 154000.
as §1

[5] = tested on: skin; conditions: guinea pig, in vivo
Description: 17th, 1992, and the test method B.6 of the 96/54 E.E.C Directive.
Albino guinea pigs of Dunkin-Hartley strain were exposed to the test item after an acclimatisation period of at least five days.
The Maximum Non Necrotizing Concentration (M.N.N.C.) was determined by injecting by intradermal route the following concentrations: 2.5%, 1.25%, 0.625%, 0.3125%, 0.1562% and 0.078% diluted in physiological saline solution.
Pre-Maximum Non Irritant Concentration (pre-M.N.I.C.) was determined by application of the test item under an occlusive dressing during 24 hours, at the following concentrations: 2.5%, 1.25%, 0.625%, 0.3125% diluted in physiological saline solution.
Maximum Non Irritant Concentration (M.N.I.C.) was determined by initially establishing an induction phase by intradermal injection with a physiological saline solution and by topical application of distilled water followed by a 18-day rest phase. In the challenge phase where the test item is under occlusive dressing for 24 hours, the test item was applied to the skin of the Albino guinea pigs at the following concentrations: 2.5%, 1.25%, 0.625%, 0.3125% diluted in physiological saline solution.

[6] = tested on: undamaged skin; assay: Acute dermal irritation; format: in vivo; conditions: monoethanolamine salt 5% by weight in water, 0.5 mL patch; reading time 1 hour
Description: The sample was applied at a dose of 0.5 mL, on an undamaged skin area of the right flank of each animal. The patch was secured in position with a strip of surgical adhesive tape.
On the left flank an untreated area served as the control.
The skin reactions were evaluated after 1 hour and then after 24, 48 and 72 hours following removal of the patch according to the following grading scale:
Erythema (0: No erythema, 1: Slight(barelyperceptible)erythema, 2: Definite erythema, 3: Moderate to severe erythema, 4: Severe erythema (purple) with formation of eschars (deep lesions) preventing erythema from being grading).
Oedema (0: No oedema, 1: Very slight (barely perceptible) oedema, 2: Slight oedema (contour clearly defined), 3: Moderate oedema (thickness), 4: Severe oedema (thickness greater than 1 mm, surface larger than zone of application)

SMILES: CCCCC(=O)O[C@]1(C(=O)CO)[C@@H](C)C[C@H]2[C@@H]3CCC4=CC(=O)C=C[C@]4(C)[C@@]3(F)[C@@H](O)C[C@@]21C [Betamethasone 17-valerate]
% inhibition of ear swelling ([1]; 20 μg/ear topical, Celeston valerate 0.1%): 66%

inhibitory effect on the PDE-IV enzyme [4]: exhibits inhibitory effect
SMILES: CCCCOc1ccc(CC(=O)NO)cc1 [Bufexamac]
inhibitory effect on Protein Tyrosine Kinase ZAP-70 [2]: only exhibits inhibitory effect on the PDE-IV enzyme | inhibitory effect on Protein Tyrosine Kinase SYK [3]: only exhibits inhibitory effect on the PDE-IV enzyme | inhibition of the formation of ear oedema [1]: did not inhibit the formation of ear oedema at all

SMILES: O=C(O)CCc1nc(-c2ccccc2)c(-c2ccccc2)o1 [Oxaprozin monoethanolamine salt]
skin sensitization (cutaneous reactions attributable to allergy) [5]: not causing sensitization reactions | % inhibition of ear swelling ([1]; 250 μg/ear topical in acetone, 20 min before and after oxazolone challenge): 53% | % inhibition of ear swelling ([1]; 500 μg/ear topical in acetone, 20 min before and after oxazolone challenge): 77% | % inhibition of ear swelling ([1]; 1000 μg/ear topical in acetone, 20 min before and after oxazolone challenge): 95% | inhibition of ear swelling (conclusion) ([1]; 250-1000 μg/ear): dose dependent and highly significant inhibition of ear swelling | inhibition of ear swelling compared with Betamethasone 17-valerate ([1]; highest dose (1000 μg/ear) vs Betamethasone 17-valerate 20 μg/ear): significantly stronger

SMILES: O=C(O)CCc1nc(-c2ccccc2)c(-c2ccccc2)o1 [Oxaprozin, 4,5-diphenyl-2-oxazole-propionic acid]
inhibition of the formation of ear oedema [1]: statistically significant inhibition of the formation of ear oedema | cutaneous reactions (erythema) [6]: slight erythema
